Measured values: patent US20240400582A1, “FOUR-MEMBERED FUSED RING COMPOUND AND PREPARATION METHOD AND USE THEREOF” (JIANGSU HANSOH PHARMACEUTICAL GROUP CO., LTD., priority 2021, published 2024)

Legend:
ABL1 WT kinase = ABL1 WT kinase (Homo sapiens (Human), UniProt P00519); test: In vitro enzymatic inhibitory activity against ABL1 WT kinase (capillary electrophoresis, EZ reader); type: biochemical; conditions: maximum concentration 1 μM
Experimental: Capillary electrophoresis was used to detect the phosphorylation conversion rate of the substrate peptide to determine the IC50 value of the test compound for inhibiting the kinase (ABL1-WT). The maximum concentration of the compound tested in the test was 1000 nM, with 3-fold dilution, and a total of 12 concentrations (1000-0.0056 nM). First, an enzyme reaction system (the concentration of enzyme ABL1-WT was 1.3 nM, the concentration of substrate FLPeptide2 was 1.5 μM, and the reaction factor was 10 mM MgCl2) was prepared. After incubation at room temperature for 30 min, […] of 4×ATP solution was added to start the enzyme reaction. After reacting at room temperature for 90 min, the reaction was stopped by adding a stop buffer (containing 0.5 M EDTA). The sample was analyzed using an EZ reader (analysis conditions: pressure −1.5 PSI, upper voltage current −2250V, lower voltage current −500V, separation time 40 sec, and system delay 100.0 sec).
From the conversion rate read by EZ Reader, the remaining activity was calculated according to the following formula.
IC50 was calculated using XLfit, and IC50 was calculated by Formula 201 as the fitting formula.

K562 = test: Inhibition of proliferation of K562 cells (CellTiter-Glo); type: cell-based; conditions: Homo sapiens, 72 h
Text: (§1) To evaluate the inhibitory activity of the compounds of the present invention against proliferation of human erythroleukemia cells K562, human peripheral blood basophilic leukemia cells Ku812, and human chronic myelogenous leukemia cells KCL22-s and KCL22-r cultured in vitro.
(§2) CellTiter-Glo® Luminescent Cell Viability Assay was used to detect the inhibitory effect of drugs on tumor cell proliferation and growth. The logarithmic growth phase cells cultured overnight were directly taken, blown, mixed and counted, the cell density was adjusted according to different cell density requirements, and the cells were prepared into a cell suspension and plated on a 96-well plate. Drugs at different concentrations were added, three replicate wells were set for each concentration, and corresponding solvent controls were set. The maximum concentration of compound detected was 500 nM, with 3-fold gradient dilution, and a total of 9 concentrations (500-0.076 nM). […] The culture plate and its contents were equilibrated to room temperature, the CellTiter-Glo® reagent was added, the contents were mixed on a shaker for 3 min to induce cell lysis, the culture plate was further incubated at room temperature in the dark for 10 min, and the chemiluminescence signal value was determined by a microplate reader (BioTek SynergyH1).

[1] = test system: human chronic myeloid leukemia cell line KCL22-s xenograft tumor; test: Anti-tumor efficacy in KCL22-s subcutaneous xenograft tumor model; type: in vivo, BALB/c nude mouse; conditions: oral, dosing cycle 15 days
Experimental: To evaluate the efficacy of the test compound on the human chronic myeloid leukemia cell strain KCL22-s in the BALB/c nude mouse subcutaneous xenograft tumor model.
BALB/c nude mice, 8-10 weeks.
The resuscitated cells were placed in a cell culture flask (the cell type, date, name of the person for culture and so on were marked on the flask wall) and then placed in a CO2 incubator (the incubator temperature was 37° C. and the CO2 concentration was 5%) for incubation. • b, The cells were passaged. After passage, the cells continued to be cultured in the CO2 incubator. This process was repeated until the cell number met the in vivo drug efficacy requirements. • c, The cultured cells were collected and counted with a fully automatic cell counter.
• a, According to the tumor growth, the tumor was measured on the 15th day after inoculation and the tumor size was calculated.

KCL22-s = test: Inhibition of proliferation of KCL22-s cells (CellTiter-Glo); type: cell-based; conditions: Homo sapiens, 72 h, imatinib-sensitive strain
Text: as §1, §2

Ku812 = test: Inhibition of proliferation of Ku812 cells (CellTiter-Glo); type: cell-based; conditions: Homo sapiens, 72 h
Text: as §1, §2

Ba/F3 BCR-ABL1-T315I = test: Inhibition of proliferation of Ba/F3 BCR-ABL1-T315I cells (CellTiter-Glo); type: cell-based; conditions: Mus musculus, BaF3, 72 h
Text: (§3) To evaluate the inhibitory activity of the compound of the present invention against proliferation of the Ba/F3 BCR-ABL1-T315I, Ba/F3 BCR-ABL1-E255K, Ba/F3 BCR-ABL1-E255V, and Ba/F3 BCR-ABL1-G250E mutation models of mouse primary B cells cultured in vitro.
(§4) CellTiter-Glo® Luminescent Cell Viability Assay was used to detect the inhibitory effect of drugs on tumor cell proliferation and growth. The logarithmic growth phase cells cultured overnight were directly taken, blown, mixed and counted, the cell density was adjusted according to different cell density requirements, and the cells were prepared into a cell suspension and plated on a 96-well plate. Drugs at different concentrations were added, 3 replicate wells were set for each concentration, and corresponding vehicle controls were eset. […] The maximum concentration of the compounds detected in other cells was 500 nM, with 3.16-fold gradient dilution, and a total of 9 concentrations (500-0.0503 nM). […] The culture plate and its contents were equilibrated to room temperature, the CellTiter-Glo® reagent was added, the contents were mixed on a shaker for 5 min to induce cell lysis, the culture plate was further incubated at room temperature in the dark for 20 min, and the luminescence was read with a microplate reader.

Ba/F3 BCR-ABL1-G250E = test: Inhibition of proliferation of Ba/F3 BCR-ABL1-G250E cells (CellTiter-Glo); type: cell-based; conditions: Mus musculus, BaF3, 72 h
Text: as §3, §4

KCL22-r = test: Inhibition of proliferation of KCL22-r cells (CellTiter-Glo); type: cell-based; conditions: Homo sapiens, 72 h, imatinib-resistant strain
Text: as §1, §2

Ba/F3 BCR-ABL1-E255V = test: Inhibition of proliferation of Ba/F3 BCR-ABL1-E255V cells (CellTiter-Glo); type: cell-based; conditions: Mus musculus, BaF3, 72 h
Text: as §3, §4

Ba/F3 BCR-ABL1-E255K = test: Inhibition of proliferation of Ba/F3 BCR-ABL1-E255K cells (CellTiter-Glo); type: cell-based; conditions: Mus musculus, BaF3, 72 h
Text: as §3, §4

Sequence of ABL1 WT kinase (P00519 whole entry): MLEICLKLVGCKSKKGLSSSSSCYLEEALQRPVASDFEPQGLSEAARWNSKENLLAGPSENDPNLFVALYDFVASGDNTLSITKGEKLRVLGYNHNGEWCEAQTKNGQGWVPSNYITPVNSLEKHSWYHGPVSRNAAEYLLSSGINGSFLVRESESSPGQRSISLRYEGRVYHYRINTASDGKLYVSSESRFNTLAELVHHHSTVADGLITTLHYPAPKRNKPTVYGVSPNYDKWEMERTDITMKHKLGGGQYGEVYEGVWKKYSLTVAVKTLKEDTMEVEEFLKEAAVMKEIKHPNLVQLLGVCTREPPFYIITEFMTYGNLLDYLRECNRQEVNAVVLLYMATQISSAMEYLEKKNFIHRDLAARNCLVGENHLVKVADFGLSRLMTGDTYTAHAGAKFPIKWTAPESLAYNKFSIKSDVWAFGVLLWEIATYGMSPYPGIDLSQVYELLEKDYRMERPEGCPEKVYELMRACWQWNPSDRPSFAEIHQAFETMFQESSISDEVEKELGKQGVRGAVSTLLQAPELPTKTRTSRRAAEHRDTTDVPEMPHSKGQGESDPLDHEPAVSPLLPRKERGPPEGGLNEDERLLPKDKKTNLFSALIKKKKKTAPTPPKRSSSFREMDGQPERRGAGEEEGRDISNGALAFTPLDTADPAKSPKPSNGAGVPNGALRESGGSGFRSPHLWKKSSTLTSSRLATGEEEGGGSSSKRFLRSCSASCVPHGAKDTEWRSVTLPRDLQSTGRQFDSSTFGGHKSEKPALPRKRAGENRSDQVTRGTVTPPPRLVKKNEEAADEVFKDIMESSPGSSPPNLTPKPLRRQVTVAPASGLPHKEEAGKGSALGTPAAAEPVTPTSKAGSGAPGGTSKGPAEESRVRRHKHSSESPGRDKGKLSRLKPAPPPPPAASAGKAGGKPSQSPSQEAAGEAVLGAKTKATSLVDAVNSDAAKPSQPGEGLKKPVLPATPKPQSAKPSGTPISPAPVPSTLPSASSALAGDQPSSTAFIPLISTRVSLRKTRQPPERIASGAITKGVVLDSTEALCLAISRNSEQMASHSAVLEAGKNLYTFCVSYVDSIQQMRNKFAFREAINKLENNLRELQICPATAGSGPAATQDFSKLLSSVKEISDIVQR

Compound: C[C@@H]1COC2NC=NC=C2c2cc(C(=O)Nc3ccc(OC(F)(F)Cl)cc3)cc3nc(C(F)F)n1c23.Cc1ccc(S(=O)(=O)O)cc1 (stereo partly drawn) [Example 1, (3R)-N-(4-(chlorodifluoromethoxy)phenyl)-2-(difluoromethyl)-3-methyl-3,4,5a,6-tetrahydro-5-oxa-1,2a,6,8-tetraazabenzo[4,5]cyclooctyl[1,2,3-cd]indene-11-carboxamide p-toluenesulfonate Salt]
- IC50 (ABL1 WT kinase): 0.43 nM
- IC50 (K562): 13 nM
- T/C ([1]; 1.5 mg/kg bid): 7.05%
- TGI ([1]; 1.5 mg/kg bid): 98.20%
- Tumor volume ([1]; 1.5 mg/kg bid): 143 ± 35 mm^3
- T/C ([1]; 3 mg/kg bid): 0.69%
- TGI ([1]; 3 mg/kg bid): 187.08%
- Tumor volume ([1]; 3 mg/kg bid): 14 ± 5 mm^3
- T/C ([1]; 3 mg/kg qd): 3.98%
- TGI ([1]; 3 mg/kg qd): 127.26%
- Tumor volume ([1]; 3 mg/kg qd): 81 ± 19 mm^3
- T/C ([1]; 7.5 mg/kg bid): 0.52%
- TGI ([1]; 7.5 mg/kg bid): 190.62%
- Tumor volume ([1]; 7.5 mg/kg bid): 11 ± 7 mm^3
- IC50 (KCL22-s): 2.99 nM
- IC50 (Ku812): 4.13 nM
- IC50 (Ba/F3 BCR-ABL1-T315I): 46.8 nM
- IC50 (Ba/F3 BCR-ABL1-G250E): 5.36 nM
- IC50 (KCL22-r): 14.6 nM
- IC50 (Ba/F3 BCR-ABL1-E255V): 7.15 nM
- IC50 (Ba/F3 BCR-ABL1-E255K): 26.3 nM

Compound: Cc1ccc(NC(=O)c2ccc(CN3CCN(C)CC3)cc2)cc1Nc1nccc(-c2cccnc2)n1 [Imatinib, reference compound]
- T/C ([1]; 75 mg/kg qd): 46.92%
- TGI ([1]; 75 mg/kg qd): 56.03%
